In patent US20100298141A1, “SUBSTITUTED PYRIDINE N-OXIDE HERBICIDES” (E. I. DU PONT DE NEMOURS AND COMPANY, priority 2007, published 2010):

What was measured:
Assay in all cases: Test F preemergence test
Virginia dayflower = format: in vivo, Commelina virginica; details: scale 0 to 100
How it was run: (§1)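 Greenhouse screen: test chemical in surfactant-containing non-phytotoxic solvent applied preemergence to sown seeds or postemergence to sugarcane plants; after 14 to 21 days each species scored visually versus controls.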

guineagrass = format: in vivo, Panicum maximum; details: scale 0 to 100
How it was run: as §1

itchgrass = format: in vivo, Rottboellia cochinchinensis; details: scale 0 to 100
How it was run: as §1

johnsongrass = format: in vivo, Sorghum halepense; details: scale 0 to 100
How it was run: as §1

kochia = format: in vivo, Kochia scoparia; details: scale 0 to 100
How it was run: as §1

naked crabgrass = format: in vivo, Digitaria nuda; details: scale 0 to 100
How it was run: as §1

pitted morningglory = format: in vivo, Ipomoea lacunosa; details: scale 0 to 100
How it was run: as §1

prickly sida = format: in vivo, Sida spinosa; details: scale 0 to 100
How it was run: as §1

dallisgrass = format: in vivo, Paspalum dilatatum; details: scale 0 to 100
How it was run: as §1

bermudagrass = format: in vivo, Cynodon dactylon; details: scale 0 to 100
How it was run: as §1

large crabgrass = format: in vivo, Digitaria sanguinalis; details: Preemergence, scale 0 to 100
How it was run: as §1

mustard = format: in vivo, Brassica nigra; details: scale 0 to 100
How it was run: as §1

goosegrass = format: in vivo, Eleusine indica; details: scale 0 to 100
How it was run: as §1

broadleaf signalgrass = format: in vivo, Brachiaria platyphylla; details: scale 0 to 100
How it was run: as §1

quackgrass = format: in vivo, Elytrigia repens; details: scale 0 to 100
How it was run: as §1

common ragweed = format: in vivo, Ambrosia elation; details: scale 0 to 100
How it was run: as §1

common purslane = format: in vivo, Portulaca oleracea; details: scale 0 to 100
How it was run: as §1

barnyardgrass = format: in vivo, Echinochloa crus-galli; details: scale 0 to 100
How it was run: as §1

common groundsel = format: in vivo, Senecio vulgaris; details: scale 0 to 100
How it was run: as §1

Italian ryegrass = format: in vivo, Lolium multiflorum; details: scale 0 to 100
How it was run: as §1

Surinam grass = format: in vivo, Brachiaria decumbens; details: scale 0 to 100
How it was run: as §1

For `Cn1nc(C(F)(F)F)c(CS(=O)(=O)c2cccc[n+]2[O-])c1OC(F)F` [Compound 4], the “Plant response rating, Dayflower” value (Virginia dayflower; 8 g ai/ha, preemergence) was 0, the “Dayflower plant response rating” value (Virginia dayflower; 62 g ai/ha, Preemergence) was 90 and the “Plant response rating, Dayflower” value (Virginia dayflower; Preemergence, 16 g ai/ha) was 0. The “Plant response rating, Dayflower” value (Virginia dayflower; Preemergence, 31 g ai/ha) was 90, the “Plant response rating, Guineagrass” value (guineagrass; 8 g ai/ha, preemergence) was 50 and the “Guineagrass plant response rating” value (guineagrass; 62 g ai/ha, Preemergence) was 100. The “Plant response rating, Guineagrass” value (guineagrass; Preemergence, 16 g ai/ha) was 80, the “Plant response rating, Guineagrass” value (guineagrass; Preemergence, 31 g ai/ha) was 100 and the “Plant response rating, Itchgrass” value (itchgrass; 8 g ai/ha, preemergence) was 0. For the same molecule, the “Itchgrass plant response rating” value (itchgrass; 62 g ai/ha, Preemergence) was 100, the “Plant response rating, Itchgrass” value (itchgrass; Preemergence, 16 g ai/ha) was 0 and the “Plant response rating, Itchgrass” value (itchgrass; Preemergence, 31 g ai/ha) was 35. For the same molecule, the “Plant response rating, Johnsongrass” value (johnsongrass; 8 g ai/ha, preemergence) was 5, the “Johnsongrass plant response rating” value (johnsongrass; 62 g ai/ha, Preemergence) was 95 and the “Plant response rating, Johnsongrass” value (johnsongrass; Preemergence, 16 g ai/ha) was 75. The “Plant response rating, Johnsongrass” value (johnsongrass; Preemergence, 31 g ai/ha) was 90, the “Plant response rating, Kochia” value (kochia; 8 g ai/ha, preemergence) was 0 and the “Kochia plant response rating” value (kochia; 62 g ai/ha, Preemergence) was 75. The “Plant response rating, Kochia” value (kochia; Preemergence, 16 g ai/ha) was 0, the “Plant response rating, Kochia” value (kochia; Preemergence, 31 g ai/ha) was 75 and the “Plant response rating, Crabgrass, Naked” value (naked crabgrass; 8 g ai/ha, preemergence) was 70. For the same molecule, the “Crabgrass, Naked plant response rating” value (naked crabgrass; 62 g ai/ha, Preemergence) was 100, the “Plant response rating, Crabgrass, Naked” value (naked crabgrass; Preemergence, 16 g ai/ha) was 70 and the “Plant response rating, Crabgrass, Naked” value (naked crabgrass; Preemergence, 31 g ai/ha) was 100. For the same molecule, the “Plant response rating, Morningglory” value (pitted morningglory; 8 g ai/ha, preemergence) was 0, the “Morningglory plant response rating” value (pitted morningglory; 62 g ai/ha, Preemergence) was 0 and the “Plant response rating, Morningglory” value (pitted morningglory; Preemergence, 16 g ai/ha) was 0. The “Plant response rating, Morningglory” value (pitted morningglory; Preemergence, 31 g ai/ha) was 0, the “Plant response rating, Prickly Sida” value (prickly sida; 8 g ai/ha, preemergence) was 0 and the “Prickly Sida plant response rating” value (prickly sida; 62 g ai/ha, Preemergence) was 0. For the same molecule, the “Plant response rating, Prickly Sida” value (prickly sida; Preemergence, 16 g ai/ha) was 0, the “Plant response rating, Prickly Sida” value (prickly sida; Preemergence, 31 g ai/ha) was 0 and the “Plant response rating, Dallisgrass” value (dallisgrass; 8 g ai/ha, preemergence) was 0. For the same molecule, the “Dallisgrass plant response rating” value (dallisgrass; 62 g ai/ha, Preemergence) was 80, the “Plant response rating, Dallisgrass” value (dallisgrass; Preemergence, 16 g ai/ha) was 0 and the “Plant response rating, Dallisgrass” value (dallisgrass; Preemergence, 31 g ai/ha) was 35. For the same molecule, the “Plant response rating, Bermudagrass” value (bermudagrass; 8 g ai/ha, preemergence) was 20, the “Bermudagrass plant response rating” value (bermudagrass; 62 g ai/ha, Preemergence) was 100 and the “Plant response rating, Bermudagrass” value (bermudagrass; Preemergence, 16 g ai/ha) was 98. For the same molecule, the “Plant response rating, Bermudagrass” value (bermudagrass; Preemergence, 31 g ai/ha) was 100, the “Crabgrass, Large plant response rating” value (large crabgrass; 62 g ai/ha) was 100 and the “Plant response rating, Crabgrass, Large” value (large crabgrass; 16 g ai/ha) was 70. The “Plant response rating, Crabgrass, Large” value (large crabgrass; 31 g ai/ha) was 70, the “Plant response rating, Black Mustard” value (mustard; 8 g ai/ha, preemergence) was 0 and the “Black Mustard plant response rating” value (mustard; 62 g ai/ha, Preemergence) was 98. For the same molecule, the “Plant response rating, Black Mustard” value (mustard; Preemergence, 16 g ai/ha) was 20, the “Plant response rating, Black Mustard” value (mustard; Preemergence, 31 g ai/ha) was 98 and the “Plant response rating, Goosegrass” value (goosegrass; 8 g ai/ha, preemergence) was 0. The “Goosegrass plant response rating” value (goosegrass; 62 g ai/ha, Preemergence) was 98, the “Plant response rating, Goosegrass” value (goosegrass; Preemergence, 16 g ai/ha) was 80 and the “Plant response rating, Goosegrass” value (goosegrass; Preemergence, 31 g ai/ha) was 98. The “Plant response rating, Signalgrass” value (broadleaf signalgrass; 8 g ai/ha, preemergence) was 0, the “Plant response rating, Signalgrass” value (broadleaf signalgrass; 16 g ai/ha, preemergence) was 15 and the “Signalgrass plant response rating” value (broadleaf signalgrass; 62 g ai/ha, Preemergence) was 80. For the same molecule, the “Plant response rating, Signalgrass” value (broadleaf signalgrass; Preemergence, 31 g ai/ha) was 35, the “Plant response rating, Quackgrass” value (quackgrass; 8 g ai/ha, preemergence) was 0 and the “Quackgrass plant response rating” value (quackgrass; 62 g ai/ha, Preemergence) was 75. For the same molecule, the “Plant response rating, Quackgrass” value (quackgrass; Preemergence, 16 g ai/ha) was 0, the “Plant response rating, Quackgrass” value (quackgrass; Preemergence, 31 g ai/ha) was 35 and the “Plant response rating, Ragweed” value (common ragweed; 8 g ai/ha, preemergence) was 0. The “Ragweed plant response rating” value (common ragweed; 62 g ai/ha, Preemergence) was 90, the “Plant response rating, Ragweed” value (common ragweed; Preemergence, 16 g ai/ha) was 65 and the “Plant response rating, Ragweed” value (common ragweed; Preemergence, 31 g ai/ha) was 75. The “Plant response rating, Purslane” value (common purslane; 8 g ai/ha, preemergence) was 15, the “Purslane plant response rating” value (common purslane; 62 g ai/ha, Preemergence) was 20 and the “Plant response rating, Purslane” value (common purslane; Preemergence, 16 g ai/ha) was 15. The “Plant response rating, Purslane” value (common purslane; Preemergence, 31 g ai/ha) was 20, the “Plant response rating, Barnyardgrass” value (barnyardgrass; 8 g ai/ha, preemergence) was 10 and the “Barnyardgrass plant response rating” value (barnyardgrass; 62 g ai/ha, Preemergence) was 80. The “Plant response rating, Barnyardgrass” value (barnyardgrass; Preemergence, 16 g ai/ha) was 65, the “Plant response rating, Barnyardgrass” value (barnyardgrass; Preemergence, 31 g ai/ha) was 80 and the “Plant response rating, Groundsel” value (common groundsel; 8 g ai/ha, preemergence) was 10. For the same molecule, the “Groundsel plant response rating” value (common groundsel; 62 g ai/ha, Preemergence) was 100, the “Plant response rating, Groundsel” value (common groundsel; Preemergence, 16 g ai/ha) was 25 and the “Plant response rating, Groundsel” value (common groundsel; Preemergence, 31 g ai/ha) was 100. The “Plant response rating, Ryegrass, Italian” value (Italian ryegrass; 8 g ai/ha, preemergence) was 0, the “Ryegrass, Italian plant response rating” value (Italian ryegrass; 62 g ai/ha, Preemergence) was 65 and the “Plant response rating, Ryegrass, Italian” value (Italian ryegrass; Preemergence, 16 g ai/ha) was 0. The “Plant response rating, Ryegrass, Italian” value (Italian ryegrass; Preemergence, 31 g ai/ha) was 65, the “Plant response rating, Surinam Grass” value (Surinam grass; 8 g ai/ha, preemergence) was 0 and the “Plant response rating, Surinam Grass” value (Surinam grass; 16 g ai/ha, preemergence) was 20. For the same molecule, the “Plant response rating, Surinam Grass” value (Surinam grass; Preemergence, 31 g ai/ha) was 100.
